Laboratory results as given in PubChem BioAssay AID687005 (Broad Institute, 2013).
Results filed as inconclusive are left out. Calls of active or inactive are those of the source.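 Rule for the calls: active = Compounds that reduce signal, with fitted half-maximal dose at or under twice the top valid tested dose; inconclusive = Poor fit, or flat curve losing 30 to 70% of signal; inactive = Potency past limit, flat within 30%, or opposite direction.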

Assay: HEK293T cell cytotoxicity, dose response, cytotoxicity control, ATP luminescence, cherry-pick samples (AID 687005)
Settings: HEK293T viability, ATP luminescence (CellTiter-Glo), 48 h; at 18 µM (top of the series)

| Compound | activity change, negative = cytotoxicity |
| --- | --- |
| CN1CCN(C(=O)CN(c2ccc(I)cc2)S(=O)(=O)c2ccccc2)CC1 | 45.2% (inactive) |

Same assay, conditions: HEK293T viability, ATP luminescence (CellTiter-Glo), 48 h; at 21 µM (top of the series)

| Compound | activity change, negative = cytotoxicity |
| --- | --- |
| C[C@@H]1CN([C@H](C)CO)C(=O)Cc2cc(NC(=O)CCCCCC(=O)Nc3ccccc3N)ccc2O[C@H]1CN(C)Cc1ccc2c(c1)OCO2 | -2.18% (inactive) |

Same assay, conditions: HEK293T viability, ATP luminescence (CellTiter-Glo), 48 h; at 23.5 µM (top of the series)

| Compound | activity change, negative = cytotoxicity |
| --- | --- |
| O=C(C[C@H]1C[C@H]2c3cc(NC(=O)C4CCC4)ccc3O[C@H]2[C@@H](CO)O1)NCc1cccc(F)c1 | -5.36% (inactive) |
| C[C@@H]1CCCCO[C@@H](CN(C)Cc2ccc3c(c2)OCO3)[C@@H](C)CN([C@H](C)CO)C(=O)c2cc(NS(=O)(=O)c3ccc(F)cc3)ccc2O1 | -35.2% (inactive) |
| C[C@@H]1CN([C@H](C)CO)C(=O)c2cc(NS(=O)(=O)c3cn(C)cn3)ccc2O[C@H]1CN(C)C(=O)Nc1cccc2ccccc12 | 17.8% (inactive) |
| O=C(NC1CCCCC1)N[C@H]1C=C[C@@H](CC(=O)N2CCOCC2)O[C@H]1CO | 14.2% (inactive) |
| CO[C@H]1CN(C)C(=O)c2cc(NC(C)=O)ccc2OC[C@H](C)N(Cc2cccc(F)c2)C[C@@H]1C | -25.3% (inactive) |
| C[C@H](CO)N1C[C@H](C)[C@@H](CN(C)C(=O)Nc2ccc(F)cc2)Oc2c(NS(=O)(=O)c3ccccc3)cccc2C1=O | -4.44% (inactive) |
| CN1c2ccc(-c3ccc(F)cc3)cc2[C@H]2[C@H](CCN2S(=O)(=O)c2cccc(F)c2)[C@H]1CO | -32.1% (inactive) |
| O=C(NC[C@@H]1[C@@H](c2ccccc2)[C@H](CO)N1C(=O)C1CCC1)NC1CCCC1 | -9.04% (inactive) |
| C[C@H]1CN([C@@H](C)CO)C(=O)Cc2cc(NC(=O)C3CC3)ccc2O[C@H]1CN(C)Cc1ccc(-c2ccccc2)cc1 | -24.1% (inactive) |

Same assay, conditions: HEK293T viability, ATP luminescence (CellTiter-Glo), 48 h; at 26 µM (top of the series)

| Compound | activity change, negative = cytotoxicity |
| --- | --- |
| CCOC(=O)NC(=S)Nc1ccc(C(C)(C)C)cc1Br | 9.89% (inactive) |
| O=C(c1cc(Br)ccc1Cl)N1CCN(c2ccccn2)CC1 | -6.43% (inactive) |
| CO[C@H]1CN(C)C(=O)c2cc(NS(=O)(=O)c3ccc(C)cc3)ccc2OC[C@H](C)N(C)C[C@H]1C | 13.7% (inactive) |
| C[C@H]1CN([C@@H](C)CO)C(=O)c2cccc(NS(C)(=O)=O)c2O[C@@H]1CN(C)Cc1ccc(-c2ccccc2)cc1 | -8.66% (inactive) |
| O=C(C[C@@H]1CC[C@H](NC(=O)Cc2ccccn2)[C@@H](CO)O1)NCCc1ccccc1 | -8.35% (inactive) |
| NC(=O)NCC#Cc1ccc2c(c1)[C@]1(C(=O)N2)[C@H](C(N)=O)[C@H]2C(=O)O[C@H](c3ccccc3)[C@H](c3ccccc3)N2[C@@H]1c1ccccc1OCCO | -5.26% (inactive) |
| C[C@H]1CN([C@@H](C)CO)C(=O)c2cccc(NS(C)(=O)=O)c2O[C@H]1CN(C)C(=O)Nc1ccc2c(c1)OCO2 | 20.3% (inactive) |
| CCC(=O)Nc1ccc2c(c1)OC[C@H](C)N(C(=O)c1ccc(F)cc1)C[C@@H](C)[C@@H](OC)CN(C)C2=O | 62.2% (inactive) |
| COc1ccc(NC(=O)N(C)C[C@@H]2OCCCC[C@H](C)Oc3ccc(NC(=O)Nc4ccc5c(c4)OCO5)cc3C(=O)N([C@H](C)CO)C[C@@H]2C)cc1 | 4.66% (inactive) |
| CCC(=O)N1[C@H](CO)[C@H](c2ccc(-c3ccc(F)cc3)cc2)[C@@H]1CNC(C)=O | -42.1% (inactive) |
| COC(=O)C1=C(C)N(Cc2ccccc2)C(=S)NC1c1ccc(Cl)cc1 (stereo not drawn) | -9.7% (inactive) |
| CN1C(=O)c2cc(NS(=O)(=O)c3cccc(F)c3)ccc2OC[C@@H]2O[C@@H](CC(=O)O)CC[C@H]21 | -21.4% (inactive) |
| C[C@H](CO)N1C[C@H](C)[C@H](CN(C)C(=O)Nc2cccc3ccccc23)Oc2ccc(NC(=O)Nc3ccccc3)cc2C1=O | 2.5% (inactive) |
| COC(=O)C1=C(C)N(Cc2ccc(Cl)cc2)C(=S)NC1c1ccc(F)cc1 (stereo not drawn) | -32.8% (inactive) |
| CNC[C@@H]1OCCCC[C@H](C)Oc2ccc(NC(=O)Nc3ccc(F)cc3)cc2C(=O)N([C@@H](C)CO)C[C@H]1C | 28.7% (inactive) |
| CCNC(=O)C[C@@H]1CC[C@H]2[C@@H](COC[C@@H](O)CN2S(=O)(=O)c2ccccc2F)O1 | 51.2% (inactive) |
| Cc1cccc(NC(=O)C2NC(=O)CC2c2ccccc2)c1C (stereo not drawn) | 8.03% (inactive) |
| Cc1cc(C)c(NC(=O)C2CCC(=O)N2)c(C)c1 (stereo not drawn) | 12.8% (inactive) |
| CCC(=O)N1[C@H](CO)[C@H](c2ccccc2)[C@@H]1CN(CC)C(=O)c1cccc(F)c1 | 25% (inactive) |
| CO[C@@H]1CC[C@@H]2CCOc3c(C#N)cccc3C(=O)N(C)C[C@H](c3ccccc3)CC(=O)N(C)C[C@@H]1O2 | -28.5% (inactive) |
| C[C@@H]1CN([C@@H](C)CO)C(=O)c2cccc(NS(C)(=O)=O)c2O[C@@H]1CN(C)C(=O)Nc1ccc2c(c1)OCO2 | -20.4% (inactive) |
| N#C[C@@H]1[C@@H](c2ccccc2)[C@@H](CO)N1C(=O)Cc1ccccc1 | -0.39% (inactive) |
| COC(=O)C1=C(C)N(Cc2ccc(F)cc2)C(=S)NC1c1cccc(OC)c1 (stereo not drawn) | 4.8% (inactive) |
| CC=Cc1ccc2n(c1=O)C[C@@H]1[C@@H](CO)[C@H](C(=O)N3CCc4ccccc4C3)N(C(=O)C3CC3)[C@H]21 (mixture of isomers) | -3.28% (inactive) |
| CC(C)NC(=O)Nc1ccc2c(c1)C(=O)N([C@@H](C)CO)C[C@@H](C)[C@H](CN(C)C(=O)Cc1ccccc1)OCCCC[C@@H](C)O2 | 37.8% (inactive) |

| Compound | activity change, negative = cytotoxicity |
| --- | --- |
| COCC(=O)N(C)C[C@H]1Oc2ncc(-c3ccccc3F)cc2C(=O)N([C@@H](C)CO)C[C@H]1C | -32.3% (inactive) |
| COc1cccc(S(=O)(=O)Nc2ccc3c(c2)[C@H]2C[C@H](CC(=O)NCc4ccccc4F)O[C@@H](CO)[C@H]2O3)c1 | 2.6% (inactive) |
| O=C1CCC(C(=O)Nc2ccc([N+](=O)[O-])cc2)N1 (stereo not drawn) | -9.02% (inactive) |
| Cc1ccc(S(=O)(=O)N(C)C[C@@H]2Oc3ncc(Br)cc3C(=O)N([C@@H](C)CO)C[C@H]2C)cc1 | -14.6% (inactive) |
| CO[C@H]1CN(C)C(=O)c2ccc(NC(=O)NC(C)C)cc2OC[C@@H](C)NC[C@H]1C | -16.2% (inactive) |
| C/C=C/c1ccc([C@@H]2[C@@H](CO)N3CCCCN(C(=O)Nc4ccc(OC)cc4)C[C@H]23)cc1 | 48.4% (inactive) |
| Cc1ccccc1S(=O)(=O)N[C@@H]1CC[C@H](CCNS(=O)(=O)c2cccc(F)c2)O[C@H]1CO | -17.7% (inactive) |
| O=C(C[C@H]1CC[C@H](NC(=O)Nc2ccc(C(F)(F)F)cc2)[C@H](CO)O1)NCc1cccc(F)c1 | 11.3% (inactive) |
| CO[C@@H]1CN(C)C(=O)c2ccc(NS(=O)(=O)c3ccc(Oc4ccccc4)cc3)cc2OC[C@H](C)NC[C@H]1C | -26.5% (inactive) |
| CC(C)NC(=O)Nc1ccc2c(c1)C(=O)N([C@@H](C)CO)C[C@H](C)[C@@H](CN(C)S(=O)(=O)c1cccs1)OCCCC[C@H](C)O2 | -17.5% (inactive) |
| Cc1cc(Cl)ccc1NC(=S)NCc1ccc(F)cc1 | 6.1% (inactive) |
| COc1ccccc1NC(=O)N[C@@H]1CC[C@@H](CCn2cc(C3(O)CCCC3)nn2)O[C@H]1CO | 9.21% (inactive) |
| O=C(C1CCOCC1)N1CC[C@@H]2[C@H]1c1cc(Br)ccc1N[C@@H]2CO | 8.11% (inactive) |
| CCCNC(=O)N(C)C[C@@H]1Oc2ncc(C#CCc3ccccc3)cc2C(=O)N([C@@H](C)CO)C[C@@H]1C | 12% (inactive) |
| COc1cccc(S(=O)(=O)Nc2ccc3c(c2)OC[C@@H](C)NC[C@H](C)[C@@H](OC)CN(C)C3=O)c1 | -6.17% (inactive) |
| CC(=O)N1[C@@H]2CN(S(=O)(=O)c3ccccc3F)c3ccccc3[C@@H]2[C@@H]1CO | 5.73% (inactive) |
| CCC(=O)N(C)C[C@@H]1Oc2cc(C#CC(C)(C)O)ccc2S(=O)(=O)N([C@@H](C)CO)C[C@H]1C | -26.1% (inactive) |
| C[C@H]1CN([C@@H](C)CO)C(=O)Cc2cc(NS(C)(=O)=O)ccc2O[C@@H]1CN(C)Cc1ccc(Cl)c(Cl)c1 | 11.7% (inactive) |
| C[C@@H]1CCCCO[C@@H](CN(C)C(=O)CCCN(C)C)[C@@H](C)CN([C@H](C)CO)C(=O)c2cc(NC(=O)Cc3ccccc3)ccc2O1 | 13.4% (inactive) |
| O=C(COc1ccc2c(c1)CCC2)NCc1ccccc1 | 1.59% (inactive) |
| C[C@@H]1CN([C@H](C)CO)C(=O)c2cc(NC(=O)Nc3cccc4ccccc34)ccc2O[C@@H](C)CCCCO[C@@H]1CN(C)Cc1ccc2c(c1)OCO2 | -13.2% (inactive) |
| C[C@@H]1CN([C@@H](C)CO)C(=O)c2cc(NS(=O)(=O)c3cn(C)cn3)ccc2O[C@@H](C)CCCCO[C@H]1CN(C)C | -1.98% (inactive) |
| CCCCN1C(=S)NC[C@@H]1Cc1ccccc1 | 6.24% (inactive) |
| CC(C)NC(=O)Nc1ccc2c(c1)C(=O)N([C@H](C)CO)C[C@@H](C)[C@H](CN(C)C(=O)Nc1ccccc1)OCCCC[C@@H](C)O2 | 37.7% (inactive) |

Same assay, conditions: HEK293T viability, ATP luminescence (CellTiter-Glo), 48 h; at 28.5 µM (top of the series)

| Compound | activity change, negative = cytotoxicity |
| --- | --- |
| CNC(=O)CN(c1ccccc1)S(=O)(=O)c1ccc(F)cc1 | -7.63% (inactive) |

Same assay, conditions: HEK293T viability, ATP luminescence (CellTiter-Glo), 48 h; at 46 µM (top of the series)

| Compound | activity change, negative = cytotoxicity |
| --- | --- |
| CCC(C)(C(=O)Nc1cccc(C)c1)N1CCC1=O (stereo not drawn) | 0.095% (inactive) |

Same assay, conditions: HEK293T viability, ATP luminescence (CellTiter-Glo), 48 h; at 50 µM (top of the series)

| Compound | activity change, negative = cytotoxicity |
| --- | --- |
| Cc1ccc(OCC(=O)NCc2ccccc2)cc1 | 29% (inactive) |
